Read-outs that look alike come from different tables or passages of the source.
Experiments:
[1] = system: Streptococcus faecalis CNCM 5 855; details: cited from earlier work
Gardnerella vaginalis [2] = test: Contact methodology AFNOR standard I 72-151, strains surviving (second trial); type: cell-based; details: 15-min contact, NaF or LiF 1 mg/l where added
Experimental: The second trial carried out was performed according to the contact methodology described in AFNOR standard I 72-151, by counting the strains surviving after a 15-min active substance/microbacterial solution contact followed by a filtration on a membrane (porosity 0.22 μm).
In this trial, 26 wild-type strains of Gardnerella vaginalis were tested, originating from hospital sources. The starting solution contained 0.1% of benzalkonium chloride, and was then diluted to 10^-1, 10^-2, 10^-3 and 10^-4. The results are summarized in the table below, which gives the total number of strains surviving (out of the 26 tested) in terms of the dilution.

Gardnerella vaginalis [3] = test: Number of strains inhibited, bactericidal substance incorporated in culture medium (first trial); type: cell-based; details: for MBC: Gardnerella vaginalis, 24 h, read-out: totally lethal concentration; for number of strains inhibited out of the 32 tested: NaF or LiF 1 mg/l where added
Experimental: (§1) In the first trial, the sample of bactericidal substance was incorporated directly in the specific culture edium of the microorganism. A concentration series of the bactericidal substance was prepared in the geometric ratio of 2, from 400 μg/ml to 1.56 μg/ml. The cell concentration used in the seeding of the Petri dishes was […]. A 24-hour incubation was performed at 37° C. and then, for each wild-type strain tested, the concentration of primary principle destroying all the microorganisms (see method of Professor F. CATALAN et al., Institut A. FOURNIER, PARIS) was determined. The trail was performed on 32 wild-type strains of Gardnerella vaginalis originating from hospital sources and with benzalkonium chloride and then nonoxinol 9 as active principles, and with sodium fluoride NaF at a concentration of 1 mg/l and then lithium fluoride LiF at a concentration of 1 mg/l as activating principles.

Pseudomonas aeruginosa = test: MIC on 200 wild-type strains of Pseudomonas aeruginosa (Examples 19 and 20); type: cell-based; details: Pseudomonas aeruginosa
Experimental: With the same methodology as above, the MIC values of benzalkonium chloride alone, in the presence of the KATHON CG (registered trademark) preservative (1 mg/l), and then in the presence of KATHON CG (registered trademark) (1 mg/l) and lithium fluoride (1 mg/l), were determined. 200 wild-type strains of Pseudomonas aeruginosa were tested.
The same trial as in Example 19 was performed, but with nonoxinol 9 as the primary active principle: 200 wild-type strains of Pseudomonas aeruginosa were also tested.

Aspergillus niger = test: MIC on hospital strains of Aspergillus niger; type: cell-based; details: read-out: MIC of the primary active principle
Description: (§2) The methodology employed is that described by Professor F. CATALAN, P. SEDNAOUI, A. MILOVANOVIC et al., Institut A. FOURNIER, PARIS.
With the same methodology, the following results were observed on hospital strains of Aspergillus niger: […]

Trichomonas vaginalis = test: Number of strains inhibited / MIC, same methodology as example 4; type: cell-based; details: for MIC: Trichomonas vaginalis
Experimental: as §1
The same methodology as in example 4 was used on 15 strains of Trichomonas vaginalis.

Candida albicans = test: MIC on hospital strains of Candida albicans; type: cell-based; details: read-out: MIC of the primary active principle
Experimental: as §2
With the same methodology, trials were performed on hospital strains of Candida albicans: […]

spermatozoa = details: in the initial 1 millilitre, cited from earlier work
[4] = system: Escherichia coli CNCM 54 127; details: cited from earlier work
[5] = in the presence of NaF at 1 mg/l
[6] = in the presence of LiF at 0.96 mg/l

In the case of CCCCCCCCCCCCCC[N+](C)(C)Cc1ccccc1.[Cl-] [benzalkonium chloride, myristyldimethylbenzylammonium chloride], the “MIC of benzalkonium chloride” value ([1]; alone) is given as 4 µg/mL, the “MIC of benzalkonium chloride” value [1, 5] is given as 3.6 µg/mL and the “total number of strains surviving (out of the 26 tested)” value (from here on “total number of strains surviving”) (Gardnerella vaginalis [2]; 0.1% solution diluted 10^-1) is given as 0. For the same compound, the “total number of strains surviving” value (Gardnerella vaginalis [2]; 0.1% solution diluted 10^-2) was 18, the “total number of strains surviving” value (Gardnerella vaginalis [2]; 0.1% solution diluted 10^-3) was 22 and the “total number of strains surviving” value (Gardnerella vaginalis [2]; 0.1% solution diluted 10^-4) was 26. It also gave an MBC (Gardnerella vaginalis [3]; alone) of 50 µg/mL, an MBC (Gardnerella vaginalis [3]; in the presence of LiF) of 12.5 µg/mL and an MBC (Gardnerella vaginalis [3]; in the presence of NaF) of 25 µg/mL. For the same compound, the “number of strains inhibited out of the 32 tested” value (Gardnerella vaginalis [3]; primary active principle 1.56 mg/l) was 0, the “number of strains inhibited out of the 32 tested” value (Gardnerella vaginalis [3]; primary active principle 3.125 mg/l) was 0 and the “number of strains inhibited out of the 32 tested” value (Gardnerella vaginalis [3]; primary active principle 6.25 mg/l) was 1. For the same compound, the “number of strains inhibited out of the 32 tested” value (Gardnerella vaginalis [3]; primary active principle 12.5 mg/l) was 28, the “number of strains inhibited out of the 32 tested” value (Gardnerella vaginalis [3]; primary active principle 25 mg/l) was 31 and the “number of strains inhibited out of the 32 tested” value (Gardnerella vaginalis [3]; primary active principle 50 mg/l) was 32. The MIC (Pseudomonas aeruginosa; + KATHON CG (1 mg/l) + LiF (1 mg/l), strain Tic R βLac^+) was 16 µg/mL, the MIC (Pseudomonas aeruginosa; + KATHON CG (1 mg/l) + LiF (1 mg/l), strain Tic R βLac^+ OXA) was 16 µg/mL and the MIC (Pseudomonas aeruginosa; + KATHON CG (1 mg/l) + LiF (1 mg/l), strain Tic R βLac^+ PSE) was 32 µg/mL. The MIC (Pseudomonas aeruginosa; + KATHON CG (1 mg/l) + LiF (1 mg/l), strain Tic R βLac^+ TEM) was 32 µg/mL, the MIC (Pseudomonas aeruginosa; + KATHON CG (1 mg/l) + LiF (1 mg/l), strain Tic R βLac^+ cephalosporinase) was 32 µg/mL and the MIC (Pseudomonas aeruginosa; + KATHON CG (1 mg/l) + LiF (1 mg/l), strain Tic S βLac^-) was 16 µg/mL. For the same compound, the MIC (Pseudomonas aeruginosa; + KATHON CG (1 mg/l), strain Tic R βLac^+ OXA, read-out: MIC) was 32 µg/mL, the MIC (Pseudomonas aeruginosa; + KATHON CG (1 mg/l), strain Tic R βLac^+ PSE, read-out: MIC) was 64 µg/mL and the MIC (Pseudomonas aeruginosa; + KATHON CG (1 mg/l), strain Tic R βLac^+ TEM, read-out: MIC) was 32 µg/mL. For the same compound, the MIC (Pseudomonas aeruginosa; + KATHON CG (1 mg/l), strain Tic R βLac^+ cephalosporinase, read-out: MIC) was 128 µg/mL, the MIC (Pseudomonas aeruginosa; + KATHON CG (1 mg/l), strain Tic R βLac^+, read-out: MIC) was 32 µg/mL and the MIC (Pseudomonas aeruginosa; + KATHON CG (1 mg/l), strain Tic S βLac^-, read-out: MIC) was 16 µg/mL. It also gave an MIC (Pseudomonas aeruginosa; alone, strain Tic R βLac^+) of 64 µg/mL, an MIC (Pseudomonas aeruginosa; alone, strain Tic R βLac^+ OXA, read-out: MIC) of 64 µg/mL and an MIC (Pseudomonas aeruginosa; alone, strain Tic R βLac^+ PSE, read-out: MIC) of 64 µg/mL. The MIC (Pseudomonas aeruginosa; alone, strain Tic R βLac^+ TEM, read-out: MIC) was 32 µg/mL, the MIC (Pseudomonas aeruginosa; alone, strain Tic R βLac^+ cephalosporinase, read-out: MIC) was 128 µg/mL and the MIC (Pseudomonas aeruginosa; alone, strain Tic S βLac^-, read-out: MIC) was 32 µg/mL. The MIC (Aspergillus niger; alone) was 50 µg/mL, the MIC (Aspergillus niger; in the presence of LiF at 0.96 mg/l and of KATHON CG preservative at 0.234 mg/l) was 100 µg/mL and the MIC (Aspergillus niger; [6]) was 135 µg/mL. For the same compound, the MIC (Trichomonas vaginalis; alone) was 25 µg/mL, the MIC (Trichomonas vaginalis; in the presence of LiF) was 6.25 µg/mL and the “number of strains inhibited out of the 15 tested” value (Trichomonas vaginalis; benzalkonium chloride 1.56 mg/l, LiF 1 mg/l where added) was 1. The “number of strains inhibited out of the 15 tested” value (Trichomonas vaginalis; benzalkonium chloride 3.125 mg/l, LiF 1 mg/l where added) was 3, the “number of strains inhibited out of the 15 tested” value (Trichomonas vaginalis; benzalkonium chloride 6.25 mg/l, LiF 1 mg/l where added) was 9 and the “number of strains inhibited out of the 15 tested” value (Trichomonas vaginalis; benzalkonium chloride 12.5 mg/l) was 13. For the same compound, the “number of strains inhibited out of the 15 tested” value (Trichomonas vaginalis; benzalkonium chloride 25 mg/l) was 15, the MIC (Candida albicans; alone) was 50 µg/mL and the MIC (Candida albicans; in the presence of LiF at 0.96 mg/l and of KATHON CG preservative at 0.234/mgl) was 2 µg/mL. For the same compound, the MIC (Candida albicans; [6]) was 135 µg/mL, the “MIC of benzalkonium chloride” value (spermatozoa; alone) was 0.006% and the “MIC of benzalkonium chloride” value (spermatozoa; with 1 ml solution containing 0.0001% F^- anions) was 0.002%. The “MIC of benzalkonium chloride” value ([4]; alone) was 6.57 µg/mL and the “MIC of benzalkonium chloride” value [4, 5] was 3 µg/mL.

— US5800838A, “Composition that inhibits or destroys at least one unicellular living organism containing fluorine F- and Lithium li+” (priority 1987, dated 1998)
